Source: paper PMC7489219 (Molecular Brain, 2020)
Counter-ions that a name gives are not always drawn.

Each compound was assayed on T1, primary mouse cortical neurons (assay: cells). Settings: Cortical neurone, 20 h, read-out: % inhibition, inhibition of NMDA-induced cell death (protection score), 30 min pre-treatment.
T1 construct: primary cortical neurons, DIV 10
Design: Protection from NMDA-induced (30 uM, 10 min) neuronal death; Hoechst nuclear morphology by automated microscopy
How it was run: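 On DIV 10, primary mouse cortical neurons were given compound at 10 μM for 30 min at 37 °C, then 30 μM NMDA for 10 min, washed, and kept 20 h with compound. Dead cells were scored by nuclear morphology, and % protection was derived from survival relative to vehicle + NMDA and untreated controls.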
Work on `COCCOC(=O)C1=C(C)NC(C)=C(C(=O)OC(C)C)C1c1cccc([N+](=O)[O-])c1` (stereo not drawn) [Nimodipine (Nimotop)] yielded an inhibition at 10 µM of -0.576%. `COC(=O)C1=C(C)NC(C)=C(C(=O)OCC(C)C)C1c1ccccc1[N+](=O)[O-]` (stereo not drawn) [Nisoldipine (Sular)] showed an inhibition at 10 µM of -2.86%. `NC(=O)N/N=C/c1ccc([N+](=O)[O-])o1` [Nitrofurazone (Nitrofural)] showed an inhibition at 10 µM of 29.8%. Work on `CNC(=C[N+](=O)[O-])NCCSCc1csc(CN(C)C)n1` [Nizatidine] yielded an inhibition at 10 µM of -2.67%. `COc1ccc(-c2cc(=O)c3c(OC)c(OC)c(OC)c(OC)c3o2)cc1OC` [Nobiletin (Hexamethoxyflavone)] was tested, and the inhibition at 10 µM was -0.471%. `CCn1cc(C(=O)O)c(=O)c2cc(F)c(N3CCNCC3)cc21` [Norfloxacin (Norxacin)] was tested, and the inhibition at 10 µM was 2.34%. `CO[C@@H]1[C@@H](OC(N)=O)[C@@H](O)[C@H](Oc2ccc3c(O)c(NC(=O)c4ccc(O)c(CC=C(C)C)c4)c(=O)oc3c2C)OC1(C)C` [Novobiocin sodium (Albamycin)] showed an inhibition at 10 µM of -0.631%. With `C[C@@H]1[C@H](O)[C@@H](C)/C=C/C=C/CC/C=C/C=C/C=C/C=C/[C@H](O[C@@H]2O[C@H](C)[C@@H](O)[C@H](N)[C@@H]2O)C[C@@H]2O[C@](O)(C[C@@H](O)[C@H](O)CC[C@@H](O)C[C@@H](O)C[C@@H](O)CC(=O)O[C@H]1C)C[C@H](O)[C@H]2C(=O)O` [Nystatin (Mycostatin)] the inhibition at 10 µM was 4%. `C#Cc1cccc(Nc2ncnc3cc(OCCOC)c(OCCO)cc23)c1` [OSI-420 (Desmethyl Erlotinib)] showed an inhibition at 10 µM of -0.167%. `CC1COc2c(N3CCN(C)CC3)c(F)cc3c(=O)c(C(=O)O)cn1c23` (stereo not drawn) [Ofloxacin (Floxin)] gave an inhibition at 10 µM of -0.567%. Compound `Cc1cc2c(s1)Nc1ccccc1N=C2N1CCN(C)CC1` [Olanzapine (Zyprexa)] has an inhibition at 10 µM of 12.7%. `CC1(C)CC[C@]2(C(=O)O)CC[C@]3(C)C(=CC[C@@H]4[C@@]5(C)CC[C@H](O)C(C)(C)[C@@H]5CC[C@]43C)[C@@H]2C1` [Oleanolic Acid (Caryophyllin)] was tested, and the inhibition at 10 µM was -2%. In the case of `CN(C)CC/C=C1/c2ccccc2COc2ccc(CC(=O)O)cc21` [Olopatadine hydrochloride (Opatanol)], the inhibition at 10 µM is reported as -8.38%. Work on `C=C1C(=O)[C@]23[C@H](O)[C@H]1CC[C@H]2[C@@]12CO[C@]3(O)[C@@H](O)[C@@H]1C(C)(C)CC[C@@H]2O` [Oridonin (Isodonol)] yielded an inhibition at 10 µM of -2.85%. `CCCCCCCCCCC[C@@H](C[C@@H]1OC(=O)[C@H]1CCCCCC)OC(=O)[C@H](CC(C)C)NC=O` [Orlistat (Alli, Xenical)] gave an inhibition at 10 µM of -9.87%. Compound `O=C(O)c1cc(=O)[nH]c(=O)[nH]1` [Orotic acid (6-Carboxyuracil)] has an inhibition at 10 µM of -3.32%. Work on `COc1ccc2ccc(=O)oc2c1CC=C(C)C` [Osthole (Osthol)] yielded an inhibition at 10 µM of -1.21%. `CCN(CC)CC#CCOC(=O)C(O)(c1ccccc1)C1CCCCC1` (stereo not drawn) [Oxybutynin (Ditropan)] showed an inhibition at 10 µM of 37.3%. For `O=C1CCC[C@@H]2[C@H]3CCC[N@+]4([O-])CCC[C@@H](CN12)[C@@H]34` [Oxymatrine (Matrine N-oxide)], the inhibition at 10 µM was -1.44%. Work on `Cc1cc(C(C)(C)C)c(O)c(C)c1CC1=NCCN1` [Oxymetazoline hydrochloride] yielded an inhibition at 10 µM of -9.52%. Compound `CN(C)[C@@H]1C(=O)C(C(N)=O)=C(O)[C@@]2(O)C(=O)C3=C(O)c4c(O)cccc4[C@@](C)(O)[C@H]3[C@H](O)[C@@H]12` [Oxytetracycline (Terramycin)] has an inhibition at 10 µM of 2.79%. For `O=C(O)/C=C/c1ccc(Cn2ccnc2)cc1` [Ozagrel], the inhibition at 10 µM was -9.99%. `CC(=O)O[C@H]1C(=O)[C@@]2(C)[C@H]([C@H](OC(=O)c3ccccc3)[C@]3(O)C[C@H](OC(=O)[C@H](O)[C@@H](NC(=O)c4ccccc4)c4ccccc4)C(C)=C1C3(C)C)[C@]1(OC(C)=O)CO[C@@H]1C[C@@H]2O` [Paclitaxel (Taxol)] showed an inhibition at 10 µM of -12.8%. `COc1ccc(C(C)=O)c(O)c1` [Paeonol (Peonol)] was tested, and the inhibition at 10 µM was -2.06%. For `Cc1nc2n(c(=O)c1CCN1CCC(c3noc4cc(F)ccc34)CC1)CCCC2O` (stereo not drawn) [Paliperidone (Invega)], the inhibition at 10 µM was -1.54%. `COc1cc2c(cc1OC)-c1cc3ccc(OC)c(OC)c3c[n+]1CC2` [Palmatine chloride] showed an inhibition at 10 µM of 8.5%. `CC(=O)O[C@H]1C[C@@H]2CC[C@@H]3[C@H](CC[C@@]4(C)[C@H]3C[C@H]([N+]3(C)CCCCC3)[C@@H]4OC(C)=O)[C@@]2(C)C[C@@H]1[N+]1(C)CCCCC1` [Pancuronium (Pavulon)] gave an inhibition at 10 µM of 7.54%. For `C=C1C(=O)O[C@H]2[C@H]1CC/C(C)=C/CC[C@@]1(C)O[C@@H]21` [Parthenolide ((-)-Parthenolide)], the inhibition at 10 µM was -3.83%. With `Cc1ccc(Nc2nccc(N(C)c3ccc4c(C)n(C)nc4c3)n2)cc1S(N)(=O)=O` [Pazopanib HCl] the inhibition at 10 µM was -2.36%. Work on `Nc1nc2[nH]cc(CCc3ccc(C(=O)N[C@@H](CCC(=O)O)C(=O)O)cc3)c2c(=O)[nH]1` [Pemetrexed] yielded an inhibition at 10 µM of 0.519%. With `CCC[C@H](N[C@@H](C)C(=O)N1[C@H](C(=O)O)C[C@@H]2CCCC[C@@H]21)C(=O)OCC` [Perindopril Erbumine (Aceon)] the inhibition at 10 µM was -1.31%. `CCCCC1C(=O)N(c2ccccc2)N(c2ccccc2)C1=O` [Phenylbutazone (Butazolidin, Butatron)] showed an inhibition at 10 µM of 47.4%. `O=C1NC(=O)C(c2ccccc2)(c2ccccc2)N1` [Phenytoin (Lepitoin)] gave an inhibition at 10 µM of 21.2%. For `O=C1N=C(O)NC1(c1ccccc1)c1ccccc1` [Phenytoin sodium (Dilantin)], the inhibition at 10 µM was 3.12%. For `O=C(CCc1ccc(O)cc1)c1c(O)cc(O)cc1O` [Phloretin (Dihydronaringenin)], the inhibition at 10 µM was -1.62%. Compound `O=C(CCc1ccc(O)cc1)c1c(O)cc(O)cc1O[C@@H]1O[C@H](CO)[C@@H](O)[C@H](O)[C@H]1O` [Phlorizin (Phloridzin)] has an inhibition at 10 µM of -2.89%. Compound `COc1ccc(-c2nc3cc(C4=NNC(=O)CC4C)ccc3[nH]2)cc1` (stereo not drawn) [Pimobendan (Vetmedin)] has an inhibition at 10 µM of -0.217%. Work on `O=C(/C=C/C=C/c1ccc2c(c1)OCO2)N1CCCCC1` [Piperine (1-Piperoylpiperidine)] yielded an inhibition at 10 µM of -1.51%. Compound `CN1C(C(=O)Nc2ccccn2)=C(O)c2ccccc2S1(=O)=O` [Piroxicam (Feldene)] has an inhibition at 10 µM of 4.8%. For `O=C(O)C[C@H](O)C[C@H](O)/C=C/c1c(C2CC2)nc2ccccc2c1-c1ccc(F)cc1` [Pitavastatin calcium (Livalo)], the inhibition at 10 µM was 17.7%. Work on `OC[C@H]1O[C@@H](Oc2cc(O)cc(C=Cc3ccc(O)cc3)c2)[C@H](O)[C@@H](O)[C@@H]1O` [Polydatin (Piceid)] yielded an inhibition at 10 µM of 1.2%. For `CC[C@@H]([C@H](C)O)n1ncn(-c2ccc(N3CCN(c4ccc(OC[C@@H]5CO[C@@](Cn6cncn6)(c6ccc(F)cc6F)C5)cc4)CC3)cc2)c1=O` [Posaconazole], the inhibition at 10 µM was -12.5%. `CCCN[C@H]1CCc2nc(N)sc2C1` [Pramipexole dihydrochloride monohydrate] showed an inhibition at 10 µM of -0.655%. Compound `CC(=O)Oc1cc2c(s1)CCN(C(C(=O)C1CC1)c1ccccc1F)C2` (stereo not drawn) [Prasugrel (Effient)] has an inhibition at 10 µM of -7.75%. `C[C@]12C=CC(=O)C=C1CC[C@@H]1[C@@H]2[C@@H](O)C[C@@]2(C)[C@H]1CC[C@]2(O)C(=O)CO` [Prednisolone (Hydroretrocortine)] showed an inhibition at 10 µM of 4.33%. `CC(=O)OCC(=O)[C@@]1(O)CC[C@H]2[C@@H]3CCC4=CC(=O)C=C[C@]4(C)[C@H]3[C@@H](O)C[C@@]21C` [Prednisolone acetate (Omnipred)] gave an inhibition at 10 µM of -1.13%. Work on `C[C@]12C=CC(=O)C=C1CC[C@@H]1[C@@H]2C(=O)C[C@@]2(C)[C@H]1CC[C@]2(O)C(=O)CO` [Prednisone (Adasone)] yielded an inhibition at 10 µM of 28.4%. `CCCNC(C)C(=O)Nc1ccccc1C` (stereo not drawn) [Prilocaine] showed an inhibition at 10 µM of 7.71%. For `CCC1(c2ccccc2)C(=O)NCNC1=O` [Primidone (Mysoline)], the inhibition at 10 µM was 27.9%. Compound `CC(=O)[C@H]1CC[C@H]2[C@@H]3CCC4=CC(=O)CC[C@]4(C)[C@H]3CC[C@]12C` [Progesterone (Prometrium)] has an inhibition at 10 µM of 7.11%. In the case of `O=c1c(-c2ccc(O)cc2)coc2c([C@@H]3O[C@H](CO)[C@@H](O)[C@H](O)[C@H]3O)c(O)ccc12` [Puerarin (Kakonein)], the inhibition at 10 µM is reported as -3.03%. `NC(=O)c1cnccn1` [Pyrazinamide (Pyrazinoic acid amide)] showed an inhibition at 10 µM of 15.2%. Work on `CN(C)C(=O)Oc1ccc[n+](C)c1` [Pyridostigmine Bromide (Mestinon)] yielded an inhibition at 10 µM of 35.3%. Work on `CCc1nc(N)nc(N)c1-c1ccc(Cl)cc1` [Pyrimethamine] yielded an inhibition at 10 µM of -0.769%. Compound `OCCOCCN1CCN(C2=Nc3ccccc3Sc3ccccc32)CC1` [Quetiapine fumarate (Seroquel)] has an inhibition at 10 µM of 0.552%. With `C=C[C@H]1CN2CC[C@H]1C[C@H]2[C@H](O)c1ccnc2ccc(OC)cc12` [Quinine hydrochloride dihydrate] the inhibition at 10 µM was -0.947%. `CC(=O)SCC(Cc1ccccc1)C(=O)NCC(=O)OCc1ccccc1` (stereo not drawn) [Racecadotril (Acetorphan)] was tested, and the inhibition at 10 µM was -7.37%. With `Cc1nnc(C(=O)NC(C)(C)c2nc(C(=O)NCc3ccc(F)cc3)c(O)c(=O)n2C)o1` [Raltegravir (MK-0518)] the inhibition at 10 µM was 8.86%. For `CCC(=O)NCC[C@@H]1CCc2ccc3c(c21)CCO3` [Ramelteon (TAK-375)], the inhibition at 10 µM was -3.3%. `CCOC(=O)[C@H](CCc1ccccc1)N[C@@H](C)C(=O)N1[C@H](C(=O)O)C[C@@H]2CCC[C@@H]21` [Ramipril (Altace)] gave an inhibition at 10 µM of -0.755%. For `CN/C(=C\[N+](=O)[O-])NCCSCc1ccc(CN(C)C)o1` [Ranitidine (Zantac)], the inhibition at 10 µM was 1.37%. In the case of `CO[C@H]1C[C@@H]2CC[C@@H](C)[C@@](O)(O2)C(=O)C(=O)N2CCCC[C@H]2C(=O)O[C@H]([C@H](C)C[C@@H]2CC[C@@H](O)[C@H](OC)C2)CC(=O)[C@H](C)/C=C(\C)[C@@H](O)[C@@H](OC)C(=O)[C@H](C)C[C@H](C)/C=C/C=C/C=C/1C` [Rapamycin (Sirolimus)], the inhibition at 10 µM is reported as -1.51%. `CCOc1cc(CC(=O)N[C@@H](CC(C)C)c2ccccc2N2CCCCC2)ccc1C(=O)O` [Repaglinide] showed an inhibition at 10 µM of -4.69%.
